Measured values reported in patent US7335776B2, “Remedies for depression containing EP1 antagonist as the active ingredient” (Ono Pharmaceutical Co., Ltd., priority 2002, dated 2008).

Tests used:
[1] = tested on: male SD (IGS) rat; experiment: Forced swim test in rats; type: in vivo; settings: for Immobility time / Immobility time as compared with that in the vehicle treated group: forced swim; for Immobility time: 5 minutes observation on 2nd day; for Immobility time / Inhibition (%): test compound orally 5 mL/kg (desipramine intraperitoneally 2 mL/kg) after 1st examination and 1 hour before 2nd, twelve animals per group; for Immobility time as compared with that in the vehicle treated group: rate of inhibition statistically significant; for Inhibition (%): inhibition of immobility vs. vehicle
Method: The seven-week old male SD (IGS) rat freely fed was solely put into the forced swimming equipment (the cylinder (Neuroscience, Inc.) of diameter of inner 19 cm, and height 40 cm, depth-sounding 17 cm, water temperature of 23±1° C.) manufactured with the transparent acrylics board, and let it swim for 15 minutes. The rat was immediately dried after the end of trial and was returned to the home cage. […] In this time, the behavior of rat is distinguished by immobile state, struggling, submerging and swimming. The immobility time, period that rats were floating on the water by taking their head outside of the water without stroking by both legs, were measured. In addition, the water in equipment was exchanged for every trial. Moreover, one trial was conducted for each animal.
The test compound was administered orally by 5 mL/kg dosage immediately after the end of the examination on the 1st, and 1 hour before the examination on the 2nd. And, the positive control compound (desipramine; […]) was similarly administered intraperitoneally by 2 mL/kg dosage immediately after the end of the examination on the 1st, and 1 hour before the examination on the 2nd.
In addition, in any case, twelve animals were used for each group.

[2] = tested on: male ddy mice; experiment: Tail-suspension test in mice; type: in vivo; settings: for Inhibition (%): inhibition of immobility vs. vehicle; for Inhibition (%) / Immobility time: 10 mg/kg orally 1 hour before measurement, ten animals per group; for Immobility time / Immobility time as compared with that in the vehicle treated group: tail suspension; for Immobility time: immobility time for 10 minutes; for Immobility time as compared with that in the vehicle treated group: rate of inhibition statistically significant
Method: It was confirmed by the following experiments that the compounds of formula of (IA)-(IK) could be useful for the treatment of depression. The following paper can be referred to about a tail-suspension test and its testing system in mice. • 1) Psychopharmacology (1985) 85: 367-370 • 2) Prog. Neuro-Psychopharmacol. & Biol. Psychiat. 1987 Vol. 11, 659-671 (1) Tail-Suspension Test in Mice
The test compound (10 mg/kg animal body weight) was administered orally to male ddy mice weighing around 30 g 1 hour before the beginning of measurement. The mice were suspended by their tail on the hook of Tail Suspension TEST System (Neuroscience, Inc., Model NS-TST01-SS2) using adhesive tape. The subsequent immobility time for 10 minutes was measured. If the mice have none of administration, they get about 300 seconds as an immobility time in this experiment. Generally, the medicine having an anti-depressive action shortens this immobility time.
In addition, in any case, ten animals were used for each group.

[3] = Toxicity (LD50 by oral administration to mouse); settings: in vivo
Method: The toxicity of the compounds of the present invention is very low and therefore, it is confirmed that these compounds are safe for use as medicine. For example, LD50 values of the compound A and B of the present invention by oral administration to mouse are 2000 mg/kg and over.

## CCCN(c1cc(C)c(C)cc1OCc1ccc(C(=O)O)cc1)S(=O)(=O)c1ccc(C)o1 [Compound H, 4-[4,5-dimethyl-2-[N-(5-methyl-2-furylsulfonyl)-N-propylamino]phenoxymethyl]benzoic acid]
[1]
  Immobility time: 156 ± 21 s
  Immobility time as compared with that in the vehicle treated group: shortened
  Inhibition (%): 35 ± 9 %

## Cc1cc(Cl)ccc1S(=O)(=O)NC[C@H]1C2CCC(CC2)[C@H]1/C=C\CCCC(=O)O [Compound A, 6-[(2S, 3S)-3-(4-chloro-2-methylphenylsulfonylaminomethyl)-bicyclo[2.2.2]octan-2-yl]-5Z-hexenoic acid]
[2]
  Inhibition (%): 30 ± 7 %
  Immobility time: 202 ± 20 s
  Immobility time as compared with that in the vehicle treated group: shortened

## Cc1ccc(S(=O)(=O)N(c2ccc(C(F)(F)F)cc2OCc2ccc(C(=O)O)cc2)C(C)C)o1 [Compound B, 4-[2-[N-isopropyl-N-(5-methyl-2-furylsulfonyl)amino]-5-trifluoromethylphenoxymethyl]benzoic acid]
[1]
  Immobility time: 163 ± 21 s
  Immobility time as compared with that in the vehicle treated group: shortened
  Inhibition (%): 31 ± 9 %
[2]
  Inhibition (%): 35 ± 8 %
  Immobility time: 194 ± 23 s
  Immobility time as compared with that in the vehicle treated group: shortened
[3]
  LD50: ≥ 2000 mg/kg

## Cc1ccc(S(=O)(=O)N(CC(C)C)c2cc(C)c(C)cc2OCc2ccc(C(=O)O)cc2)o1 [Compound D, 4 [2-[N-isobutyl-N-(5-methyl-2-furylsulfonyl)amino]-4,5-dimethylphenoxymethyl]benzoic acid]
[2]
  Inhibition (%): 27 ± 8 %
  Immobility time: 217 ± 24 s
  Immobility time as compared with that in the vehicle treated group: shortened

## CC(C)CN(c1ccc(C(F)(F)F)cc1OCc1ccc(C=CC(=O)O)cc1)S(=O)(=O)c1ccco1 [Compound C, 4-[2-(N-isobutyl-2-furanylsulfonylamino)-5-trifluoromethylphenoxymethyl]cinnamic acid]
[2]
  Inhibition (%): 23 ± 7 %
  Immobility time: 212 ± 20 s
  Immobility time as compared with that in the vehicle treated group: shortened

## Cc1ccc(S(=O)(=O)N(CC(C)C)c2cc(C)c(C)cc2OCc2ccc(C(=O)O)cc2C)o1 [Compound E, 3-methyl-4-[2-[N-isobutyl-N-(5-methyl-2-furylsulfonyl)amino]4,5-dimethylphenoxymethyl]benzoic acid]
[2]
  Inhibition (%): 38 ± 12 %
  Immobility time: 185 ± 36 s
  Immobility time as compared with that in the vehicle treated group: shortened

## Cc1ccc(C(=O)N(c2ccc(C(F)(F)F)cc2OCc2ccc(/C=C/C(=O)O)cc2)C(C)C)o1 [Compound J, 4-[5-trifluoromethyl-2-[N-(5-methyl-2-furylcarbonyl)-N-isopropylamino]phenoxymethyl]cinnamic acid]
[1]
  Immobility time: 194 ± 16 s
  Immobility time as compared with that in the vehicle treated group: shortened
  Inhibition (%): 20 ± 7 %

## Cc1csc(S(=O)(=O)N(CC(C)C)c2cc3c(cc2OCc2ccc(C(=O)O)cc2)CCC3)n1 [Compound K, 4-[6-[N-isobutyl-N-(4-methyl-2-thizolylsulfonyl)amino]indan-5-yloxymethyl]benzoic acid]
[1]
  Immobility time: 172 ± 17 s
  Immobility time as compared with that in the vehicle treated group: shortened
  Inhibition (%): 29 ± 7 %

## CNCCCN1c2ccccc2CCc2ccccc21 [Desipramine, desipramine, reference compound]
[1]
  Immobility time: 112 ± 15 s
  Inhibition (%): 53 ± 6 %

## Cc1ccc(S(=O)(=O)N(CC(C)C)c2cc3c(cc2OCc2ccc(/C=C/C(=O)O)cc2)CCC3)o1 [Compound F, 4-[6-[N-isobutyl-N-(5-methyl-2-furylsulfonyl)amino]indan-5-yloxymethyl]cinnamic acid]
[2]
  Inhibition (%): 47 ± 9 %
  Immobility time: 160 ± 26 s
  Immobility time as compared with that in the vehicle treated group: shortened
